Results taken from US8791123B2, “Substituted pyrazolo[1,5-a]pyrimidine compounds as Trk kinase inhibitors” (Array Biopharma, Inc., priority 2009, dated 2014).

Assays:
[1] = target: TrkA (histidine-tagged recombinant human TrkA, cytoplasmic domain) (Homo sapiens (Human), UniProt P04629); experiment: TrkA ELISA Assay; type: biochemical; details: Table 1; ELISA, 500 μM ATP; read-out: TrkA Enzyme IC50
In short: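 ELISA read-out: a peroxidase-linked anti-phosphotyrosine antibody (PY20, 0.2 μg/mL) with TMB substrate, absorbance at 450 nm after acid stop. The plate-bound substrate was poly(Glu,Ala,Tyr; 6:3:1) at 0.025 mg/mL, phosphorylated by the recombinant His-tagged human TrkA cytoplasmic domain in the presence of inhibitors.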

[2] = target: Human Jak2 kinase domain (Homo sapiens (Human), UniProt O60674); experiment: Jak2 Inhibition Assay (Omnia kinase assay); type: biochemical; details: Table 1; 500 μM ATP; >1000 nM when >50% inhibition not observed at 1000 nM; read-out: Jak2 Enzyme IC50
Human Jak2 kinase domain, sequence (O60674 808-1132): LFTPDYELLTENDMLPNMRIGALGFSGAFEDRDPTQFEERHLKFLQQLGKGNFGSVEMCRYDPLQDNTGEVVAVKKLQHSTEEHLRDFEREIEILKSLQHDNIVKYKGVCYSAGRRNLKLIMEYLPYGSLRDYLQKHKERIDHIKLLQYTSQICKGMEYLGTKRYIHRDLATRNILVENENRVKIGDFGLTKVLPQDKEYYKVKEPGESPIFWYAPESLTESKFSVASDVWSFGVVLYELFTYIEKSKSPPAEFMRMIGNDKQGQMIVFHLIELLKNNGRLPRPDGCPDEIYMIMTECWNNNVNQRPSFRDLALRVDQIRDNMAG

TrkA (histidine-tagged recombinant human TrkA, cytoplasmic domain), sequence (P04629 440-796): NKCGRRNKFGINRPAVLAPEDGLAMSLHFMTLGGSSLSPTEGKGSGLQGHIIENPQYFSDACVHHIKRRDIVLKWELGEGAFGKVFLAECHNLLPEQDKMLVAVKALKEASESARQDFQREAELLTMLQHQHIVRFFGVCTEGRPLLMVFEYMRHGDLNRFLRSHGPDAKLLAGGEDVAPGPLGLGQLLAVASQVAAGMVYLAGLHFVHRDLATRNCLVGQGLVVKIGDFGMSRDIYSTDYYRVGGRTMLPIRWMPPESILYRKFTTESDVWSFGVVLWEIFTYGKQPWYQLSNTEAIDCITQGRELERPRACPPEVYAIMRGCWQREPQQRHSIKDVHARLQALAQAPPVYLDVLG

Structure (SMILES)	IC50 [1] [nM]	IC50 [2] [nM]
O=C(N[C@@H]1CCC[C@H]1O)c1cnn2ccc(N3CCC[C@@H]3c3cncc(F)c3)nc12 [Example 133, 5-((R)-2-(5-fluoropyridin-3-yl)pyrrolidin-1-yl)-N-((1R,2R)-2-hydroxycyclopentyl)pyrazolo[1,5-a]pyrimidine-3-carboxamide]	16	> 1000
O=C(NCC(F)F)c1cnn2ccc(N3CCC[C@@H]3c3cncc(F)c3)nc12 [Example 134, (R)-N-(2,2-difluoroethyl)-5-(2-(5-fluoropyridin-3-yl)pyrrolidin-1-yl)pyrazolo[1,5-a]pyrimidine-3-carboxamide]	7.4	> 1000
O=C(N[C@@H]1CCC[C@@H]1O)c1cnn2ccc(N3CCC[C@@H]3c3cncc(F)c3)nc12 [Example 135, 5-((R)-2-(5-fluoropyridin-3-yl)pyrrolidin-1-yl)-N-((1R,2S)-2-hydroxycyclopentyl)pyrazolo[1,5-a]pyrimidine-3-carboxamide]	142	> 1000
O=C(N[C@@H]1CCCC[C@H]1O)c1cnn2ccc(N3CCC[C@@H]3c3cncc(F)c3)nc12 [Example 136, 5-((R)-2-(5-fluoropyridin-3-yl)pyrrolidin-1-yl)-N-((1R,2R)-2-hydroxycyclohexyl)pyrazolo[1,5-a]pyrimidine-3-carboxamide]	26.3	> 1000
O=C(c1cnn2ccc(N3CCC[C@@H]3c3cncc(F)c3)nc12)N1CCCCC1 [Example 137, (R)-(5-(2-(5-fluoropyridin-3-yl)pyrrolidin-1-yl)pyrazolo[1,5-a]pyrimidin-3-yl)(piperidin-1-yl)methanone]	794	> 1000
O=C(N[C@@H]1C2CC[C@@H](C2)[C@@H]1CO)c1cnn2ccc(N3CCC[C@@H]3c3cncc(F)c3)nc12 [Example 138, 5-((R)-2-(5-fluoropyridin-3-yl)pyrrolidin-1-yl)-N-((2R,3S,4S)-3-(hydroxymethyl)bicyclo[2.2.1]heptan-2-yl)pyrazolo[1,5-a]pyrimidine-3-carboxamide]	34.8	> 1000
COc1ncc(F)cc1[C@H]1CCCN1c1ccn2ncc(C(=O)N3CC(O)C3)c2n1 [Example 139, (R)-(5-(2-(5-fluoro-2-methoxypyridin-3-yl)pyrrolidin-1-yl)pyrazolo[1,5-a]pyrimidin-3-yl)(3-hydroxyazetidin-1-yl)methanone]	32.7	> 1000
NCCCNC(=O)c1cnn2ccc(N3CCC[C@@H]3c3cc(F)c[nH]c3=O)nc12 [Example 142, (R)—N-(3-aminopropyl)-5-(2-(5-fluoro-2-oxo-1,2-dihydropyridin-3-yl)pyrrolidin-1-yl)pyrazolo[1,5-a]pyrimidine-3-carboxamide]	12.7	> 1000
COc1ncc(F)cc1[C@H]1CCCN1c1ccn2ncc(C(=O)NC[C@H](O)CO)c2n1 [Example 143, N—((S)-2,3-dihydroxypropyl)-5-((R)-2-(5-fluoro-2-methoxypyridin-3-yl)pyrrolidin-1-yl)pyrazolo[1,5-a]pyrimidine-3-carboxamide]	8	> 1000
COc1ncc(F)cc1[C@H]1CCCN1c1ccn2ncc(C(=O)N3CC(C)(O)C3)c2n1 [Example 147, (R)-(5-(2-(5-fluoro-2-methoxypyridin-3-yl)pyrrolidin-1-yl)pyrazolo[1,5-a]pyrimidin-3-yl)(3-hydroxy-3-methylazetidin-1-yl)methanone]	30.8	> 1000
COc1ncc(F)cc1[C@H]1CCCN1c1ccn2ncc(C(=O)NCC(O)CO)c2n1 (stereo partly drawn) [Example 149, N-(2,3-dihydroxypropyl)-5-((R)-2-(5-fluoro-2-methoxypyridin-3-yl)pyrrolidin-1-yl)pyrazolo[1,5-a]pyrimidine-3-carboxamide]	6.1	> 1000
COc1ncc(F)cc1[C@H]1CCCN1c1ccn2ncc(C(=O)NC[C@@H](O)CO)c2n1 [Example 150, N-((R)-2,3-dihydroxypropyl)-5-((R)-2-(5-fluoro-2-methoxypyridin-3-yl)pyrrolidin-1-yl)pyrazolo[1,5-a]pyrimidine-3-carboxamide]	5.7	> 1000
COc1ncc(F)cc1[C@H]1CCCN1c1ccn2ncc(C(=O)NOCCOC(C)(C)C)c2n1 [Example 152, (R)-N-(2-tert-butoxyethoxy)-5-(2-(5-fluoro-2-methoxypyridin-3-yl)pyrrolidin-1-yl)pyrazolo[1,5-a]pyrimidine-3-carboxamide]	18.1	> 1000
COc1ncc(F)cc1[C@H]1CCCN1c1ccn2ncc(C(=O)NCC(C)(C)O)c2n1 [Example 158, (R)-5-(2-(5-fluoro-2-methoxypyridin-3-yl)pyrrolidin-1-yl)-N-(2-hydroxy-2-methylpropyl)pyrazolo[1,5-a]pyrimidine-3-carboxamide]	9.9	> 1000
COc1ncc(F)cc1[C@H]1CCCN1c1ccn2ncc(C(=O)NC(CO)CO)c2n1 [Example 160, (R)-N-(1,3-dihydroxypropan-2-yl)-5-(2-(5-fluoro-2-methoxypyridin-3-yl)pyrrolidin-1-yl)pyrazolo[1,5-a]pyrimidine-3-carboxamide]	25.6	> 1000
CN1CCN(CCNC(=O)c2cnn3ccc(N4CCC[C@@H]4c4cc(F)ccc4F)nc23)CC1 [Example 171, 5-((R)-2-(2,5-difluorophenyl)pyrrolidin-1-yl)-N-(2-(4-methylpiperazin-1-yl)ethyl)pyrazolo[1,5-a]pyrimidine-3-carboxamide]	4.7	> 1000

Now those with a lower IC50 [1], led by results:

IC50 [1] [nM]	IC50 [2] [nM]	Structure (SMILES)
4.3	> 1000	COc1ncc(F)cc1[C@H]1CCCN1c1ccn2ncc(C(=O)NC3CCN(CCO)CC3)c2n1 [Example 159, (R)-5-(2-(5-fluoro-2-methoxypyridin-3-yl)pyrrolidin-1-yl)-N-(1-(2-hydroxyethyl)piperidin-4-yl)pyrazolo[1,5-a]pyrimidine-3-carboxamide]
3	> 1000	COc1ncc(F)cc1[C@H]1CCCN1c1ccn2ncc(C(=O)Nc3ccc(=O)[nH]c3)c2n1 [Example 161, (R)-5-(2-(5-fluoro-2-methoxypyridin-3-yl)pyrrolidin-1-yl)-N-(6-oxo-1,6-dihydropyridin-3-yl)pyrazolo[1,5-a]pyrimidine-3-carboxamide]
2.8	> 1000	COc1ncc(F)cc1[C@H]1CCCN1c1ccn2ncc(C(=O)NC[C@@H](C)O)c2n1 [Example 157, 5-((R)-2-(5-fluoro-2-methoxypyridin-3-yl)pyrrolidin-1-yl)-N-((R)-2-hydroxypropyl)pyrazolo[1,5-a]pyrimidine-3-carboxamide]
2.4	> 1000	C[C@H](O)CNC(=O)c1cnn2ccc(N3CCC[C@@H]3c3cc(F)ccc3F)nc12 [Example 166, 5-((R)-2-(2,5-difluorophenyl)pyrrolidin-1-yl)-N-(2-hydroxypropyl)pyrazolo[1,5-a]primidine-3-carboxamide]
2.2	444	COc1ncc(F)cc1[C@H]1CCCN1c1ccn2ncc(C(=O)NC3CCN(S(C)(=O)=O)CC3)c2n1 [Example 162, (R)-5-(2-(5-fluoro-2-methoxypyridin-3-yl)pyrrolidin-1-yl)-N-(1-(methylsulfonyl)piperidin-4-yl)pyrazolo[1,5-a]pyrimidine-3-carboxamide]
2.1	> 1000	CNC(=O)c1cnn2ccc(N3CCC[C@@H]3c3cc(F)cnc3OC)nc12 [Example 153, (R)-5-(2-(5-fluoro-2-methoxypyridin-3-yl)pyrrolidin-1-yl)-N-methylpyrazolo[1,5-a]pyrimidine-3-carboxamide]
2.1	> 1000	COc1ncc(F)cc1[C@H]1CCCN1c1ccn2ncc(C(=O)NC[C@H](C)O)c2n1 [Example 156, 5-((R)-2-(5-fluoro-2-methoxypyridin-3-yl)pyrrolidin-1-yl)-N-((S)-2-hydroxypropyl)pyrazolo[1,5-a]pyrimidine-3-carboxamide]
1.4	> 1000	COc1ncc(F)cc1[C@H]1CCCN1c1ccn2ncc(C(=O)NCCCCO)c2n1 [Example 151, (R)-5-(2-(5-fluoro-2-methoxypyridin-3-yl)pyrrolidin-1-yl)-N-(4-hydroxybutyl)pyrazolo[1,5-a]pyrimidine-3-carboxamide]
1.3	524	COc1ncc(F)cc1[C@H]1CCCN1c1ccn2ncc(C(=O)N[C@H]3CC[C@H](O)C3)c2n1 [Example 154, 5-((R)-2-(5-fluoro-2-methoxypyridin-3-yl)pyrrolidin-1-yl)-N-((1S,3S)-3-hydroxycyclopentyl)pyrazolo[1,5-a]pyrimidine-3-carboxamide]
1.1	> 1000	COc1ncc(F)cc1[C@H]1CCCN1c1ccn2ncc(C(=O)NCCCO)c2n1 [Example 148, (R)-5-(2-(5-fluoro-2-methoxypyridin-3-yl)pyrrolidin-1-yl)-N-(3-hydroxypropyl)pyrazolo[1,5-a]pyrimidine-3-carboxamide]
1.1	> 1000	O=C(NCCO)c1cnn2ccc(N3CCCC3c3cc(F)ccc3F)nc12 (stereo not shown) [Example 165, 5-(2-(2,5-difluorophenyl)pyrrolidin-1-yl)-N-(2-hydroxyethyl)pyrazolo[1,5-a]pyrimidine-3-carboxamide]
0.9	759	O=C(N[C@H]1CC[C@H](O)C1)c1cnn2ccc(N3CCC[C@@H]3c3cc(F)ccc3F)nc12 [Example 169, 5-((R)-2-(2,5-difluorophenyl)pyrrolidin-1-yl)-N-((1S,3S)-3-hydroxycyclopentyl)pyrazolo[1,5-a]pyrimidine-3-carboxamide]
0.2	> 1000	COc1ncc(F)cc1[C@H]1CCCN1c1ccn2ncc(C(=O)NCCO)c2n1 [Example 155, (R)-5-(2-(5-fluoro-2-methoxypyridin-3-yl)pyrrolidin-1-yl)-N-(2-hydroxyethyl)pyrazolo[1,5-a]pyrimidine-3-carboxamide]
